# Experimental data from patent US20250214996A1, “SALTS AND SOLID FORMS OF AN ESTROGEN RECEPTOR ANTAGONIST” (Olema Pharmaceuticals, Inc., priority 2022, published 2025).
# Where “and” joins values, the source holds several entries; their conditions need not be identical. Equal entries are not always repeated. Where two headings read alike, the source gives them in different places. Marks after values point to notes of the source that are not given here.
# Experiments:
# [1] = Stability in oven at 60° C. for two weeks; format: physicochemical; conditions: for HPLC Purity (%) Starting: before storage; for XRPD: form after oven at 60° C. for two weeks
# Protocol: Amorphous Compound 1, Compound 1 Fumarate Form E, and Compound 1 Fumarate Form A Anhydrate were placed in an oven at 60° C. for two weeks to evaluate their stability.
# [2] = Dynamic vapor sorption (DVS) hygroscopicity; format: physicochemical; conditions: for Form Change after DVS?: XRPD before and after DVS
# Protocol: Dynamic Vapor Sorption (DVS) was measured by a SMS (Surface Measurement Systems) DVS Intrinsic. Parameters for DVS test are listed below:
# Alternatively, DVS was performed using Intrinsic DVS ([…], UK). About 30-50 mg of sample was placed in a sample basked and hung in the measuring chamber. For an isotherm test, the chamber temperature is maintained by a water bath at a constant 25±1° C. The sample was tested at a targeted RH from 0 to 90% full cycle in step mode. The analysis was performed in 10% RH increments. Time duration at each RH was set as 60 min so that the sample could reach equilibrium with the chamber environment. Data were collected in 20 s increments.
# A DVS isotherm plot was collected at 25° C. to investigate the solid form stability as a function of humidity. For Compound 1 Fumarate Form A Anhydrate, solids were pre-equilibrated at 0% RH to remove the unbounded solvent or water before the hygroscopicity experiment was started.
# [3] = Solubility by dynamic method; format: physicochemical; conditions: for Solubility / solubility at 15 min: Dynamic; for solubility at 15 min: organic solvent or mixture, thermodynamic from solid
# Protocol: […] Solubility was measured by the dynamic method and gravimetric method.
# Dynamic method: Under the condition of a certain amount of solute and certain temperature, solvent was gradually added with stirring for 15 min to reach equilibrium. When solute is completely dissolved, amount of solvent was recorded and the solubility calculated.
# [4] = Solubility by gravimetric method; format: physicochemical; conditions: H2O, 25° C.
# Protocol: Solubility studies of Compound 1 and Compound 1 Fumarate in different solvents at 25° C. were performed. Solubility was measured by the dynamic method and gravimetric method.
# Gravimetric method: Excess solids and a certain amount of solvent were added 8 mL vials, stirred for 24 hours, and filtered.
# [5] = Competitive slurry of Fumarate Form E and Fumarate Form A Anhydrate (XRPD); format: physicochemical
# Protocol: Competitive slurry experiments were performed with Compound 1 Fumarate Form E and Compound 1 Fumarate Form A Anhydrate, as follows:
# Experiment #1: Compound 1 Fumarate Form E (100 mg), Compound 1 Fumarate Form A Anhydrate (100 mg), and isopropanol (2 mL) were added into two 8-mL vials and mixed well in a shaker at 25° C. and 40° C., respectively. Samples for analysis were taken at 24 h and 72 h.
# Experiment #2: Compound 1 Fumarate Form E (100 mg), Compound 1 Fumarate Form A Anhydrate (100 mg), and water (2 mL) were added into two 8-mL vials and mixed well in a shaker at 25° C. and 40° C., respectively. Samples for analysis were taken at 24 h and 72 h.
# Experiment #3: Compound 1 Fumarate Form E (100 mg), Compound 1 Fumarate Form A Anhydrate (100 mg), and ethyl acetate (2 mL) were added into two 8-mL vials and mixed well in a shaker at 25° C. and 40° C., respectively. Samples for analysis were taken at 24 h and 72 h.
# [6] = Bulk density in graduated cylinder; format: physicochemical
# Protocol: Bulk density of Compound 1 Fumarate Form E was measured by gently introducing a known sample mass into a graduated cylinder (50 mL), leveling the powder without compacting it, and recording the apparent untapped volume to the nearest graduated unit.
# [7] = Kinetic solubility estimate, solvent aliquot addition, visual observation; format: physicochemical
# Protocol: A polymorph screen was conducted using amorphous Compound 1. To help design the experiments, kinetic solubilities of the compound were estimated. The estimation was done using a solvent aliquot addition method, and dissolution was judged by visual observation. In Table 14, solvent ratios (v/v) are approximate; values are rounded to nearest whole number. If complete dissolution was achieved by one aliquot addition, solubilities were reported as “>”; if […], solubilities were reported as “<”. The actual solubility may be larger than the value calculated due to the use of solvent aliquots that were too large or due to a slow rate of dissolution.
# A polymorph screen was conducted using Compound 1 Fumarate Form A Ethyl Acetate Solvate. The screen consisted primarily of long term slurry experiments. To help design screen experiments, kinetic solubilities of Fumarate Form A Ethyl Acetate Solvate were estimated. The estimation was done on a 3-11 mg scale using a solvent aliquot addition method, and dissolution was judged by visual observation. Solubilities are estimated at ambient temperature and reported to the nearest mg/mL; if complete dissolution was achieved by one aliquot addition, solubilites were reported as […]
# [8] = Pharmacokinetic study in Beagle dogs, oral capsule; format: in vivo; conditions: for AUClast/D / AUC∞/D: dose-normalised
# Protocol: Compound 1 […] in two different forms was administered orally (PO) to male and female Beagle dogs. Blood was serially collected up to 144 hours post dose for determination of plasma pharmacokinetic analysis.
# Animals were healthy at the start of the study and were between 1 and 6.5 years of age. Initial body weights were recorded at the start of the study and general health observations were recorded at each blood collection time point.
# Each Group contained 3 male and 1 female dog. Capsules were administered by placing the capsule to the back of the throat, followed by a 10 mL flush with drinking water.
# Plasma concentrations of Compound 1 were determined by LC-MS/MS. Pharmacokinetic parameters were determined using Phoenix WinNonlin (v8.0) non-compartmental analyses.
# [9] = Solid form change on heating (XRPD); format: physicochemical
# [10] = both sexes, dog, dose 5.34 mg/kg (Group 1), 7.4 mg/kg (Group 2), plasma
# [11] = dose 5.34 mg/kg (Group 1), 7.4 mg/kg (Group 2), plasma
smiles,measurement,setting,value
CCCN1CC(Oc2ccc([C@@H]3c4[nH]c5ccccc5c4C[C@@H](C)N3CC(C)(C)F)cc2)C1.O=C(O)/C=C/C(=O)O [Compound 1 Fumarate Form E],HPLC Purity (%) Starting,[1],99.54%
same,XRPD,[1],No change
same,HPLC Purity (%) 60° C.,[1]; oven at 60° C. for two weeks,99.50%
same,HPLC Purity (%) Degradation,[1]; oven at 60° C. for two weeks,−0.05%
same,stability relative to Amorphous Compound 1,[1]; oven at 60° C. for two weeks,improved stability
same,hygroscopicity by DVS,[2]; DVS,not hygroscopic
same,Solubility,"[3]; IPA/heptane (1/1), 25° C.",~2.35 mg/mL
same,Solubility,"[3]; IPA/heptane (1/3), 25° C.",<1 mg/mL
same,Solubility,"[3]; IPA/heptane (5/1), 25° C.",5.89 mg/mL
same,Solubility,"[3]; IPA/heptane (5/3), 25° C.",~3.57 mg/mL
same,Solubility,"[3]; IPA, 0° C.",<1 mg/mL
same,Solubility,"[3]; IPA, 25° C.",~8.46 mg/mL
same,solubility in isopropanol,[3]; 25° C.,very low solubility
same,Solubility,[4],1.0 mg/mL
same,competitive slurry outcome (XRPD),"[5]; ethyl acetate, 72 h at 25° C. or 40° C.",a mixture of Compound 1 Fumarate Form E and Compound 1 Fumarate Form A Anhydrate remained
same,competitive slurry outcome (XRPD),"[5]; isopropanol, 24 h at 25° C. or 40° C.",more stable than Form A in isopropanol
same,competitive slurry outcome (XRPD),"[5]; water, 72 h at 25° C. or 40° C.",a mixture of Compound 1 Fumarate Form E and Compound 1 Fumarate Form A Anhydrate remained
same,"Bulk Density (g/mL), Average",[6]; average of three runs,0.1239 g/mL
same,Bulk Density,"[6]; untapped, runs 1-3",0.1288 g/mL and 0.1233 g/mL and 0.1196 g/mL
CCCN1CC(Oc2ccc([C@@H]3c4[nH]c5ccccc5c4C[C@@H](C)N3CC(C)(C)F)cc2)C1 [Amorphous Compound 1],HPLC Purity (%) Starting,[1],99.23%
same,XRPD,[1],No change
same,HPLC Purity (%) 60° C.,[1]; oven at 60° C. for two weeks,98.94%
same,HPLC Purity (%) Degradation,[1]; oven at 60° C. for two weeks,−0.29%
same,Solubility,"[7]; aqueous with cosolvent or surfactant or cyclodextrin, thermodynamic from solid, amorphous Compound 1, 2-MeTHF/MeOH/water (60/20/20), read-out: Solubility",106 mg/mL
same,Solubility,"[7]; aqueous with cosolvent or surfactant or cyclodextrin, thermodynamic from solid, amorphous Compound 1, ACN/water (60/40), read-out: Solubility",< 6 mg/mL
same,Solubility,"[7]; aqueous with cosolvent or surfactant or cyclodextrin, thermodynamic from solid, amorphous Compound 1, Dioxane/water (60/40), read-out: Solubility",< 13 mg/mL
same,Solubility,"[7]; aqueous with cosolvent or surfactant or cyclodextrin, thermodynamic from solid, amorphous Compound 1, MeOH/water (40/60), appeared hydrophobic, read-out: Solubility",< 55 mg/mL
same,Solubility,"[7]; aqueous with cosolvent or surfactant or cyclodextrin, thermodynamic from solid, amorphous Compound 1, NMP/water (68/32), read-out: Solubility",7 mg/mL
same,Solubility,"[7]; organic solvent or mixture, thermodynamic from solid, amorphous Compound 1, Heptane, read-out: Solubility",> 191 mg/mL
same,Solubility,"[7]; organic solvent or mixture, thermodynamic from solid, amorphous Compound 1, IPA, read-out: Solubility",82 mg/mL
same,Form Change after DVS?,[2]; listed as Amorphous Freebase,No
same,Hygroscopicity (%)* (class),[2]; based on water uptake at 25° C./80% RH,Slightly
same,Hygroscopicity (%)* (water uptake),[2]; water uptake at 25° C./80% RH,(0.463) %
same,Cmax,[8]; [10],343 ng/mL
same,MRT last,[8]; [10],37.8 h
same,half-life,[8]; [10],56.4 h
same,tmax,"[8]; both sexes, dog, dose 5.34 mg/kg (Group 1), 7.4 mg/kg (Group 2), plasma, read-out: tmax",3.25 h
same,AUC(0-inf),"[8]; both sexes, dog, plasma, dose 5.34 mg/kg (Group 1), 7.4 mg/kg (Group 2)",8960 ng·h/mL
same,AUC(0-t),"[8]; both sexes, dog, plasma, dose 5.34 mg/kg (Group 1), 7.4 mg/kg (Group 2), up to 144 hours",7460 ng·h/mL
same,AUClast/D,[8],1297 kg·ng·h/mL/mg
same,AUC∞/D,[8],1527 kg·ng·h/mL/mg
same,solubility in isopropanol,[3]; 25° C.,high solubility
same,solubility at 15 min,"[3]; IPA, 25° C.",> 468 mg/mL
CCCN1CC(Oc2ccc([C@@H]3c4[nH]c5ccccc5c4C[C@@H](C)N3CC(C)(C)F)cc2)C1.O=C(O)/C=C/C(=O)O,Solubility,"[7]; ambient temperature, 2-BuOH",17 mg/mL
same,Solubility,"[7]; ambient temperature, 2-McTHF",32 mg/mL
same,Solubility (mg/mL),"[7]; ambient temperature, ACN, re-precipitated after first aliquot",<2* mg/mL
same,Solubility,"[7]; ambient temperature, Anisole",<1 mg/mL
same,Solubility,"[7]; ambient temperature, DCE",<9 mg/mL
same,Solubility (mg/mL),"[7]; ambient temperature, DCE/EtOH (96/4)",Dissolved at 8 mg/mL
same,Solubility,"[7]; ambient temperature, Dioxane",>104 mg/mL
same,Solubility,"[7]; ambient temperature, IPA",20 mg/mL
same,Solubility,"[7]; ambient temperature, IPA/water (50/50)",>124 mg/mL
same,Solubility,"[7]; ambient temperature, MIBK",4 mg/mL
same,Solubility,"[7]; ambient temperature, MTBE",2 mg/mL
same,Solubility,"[7]; ambient temperature, TFE",>100 mg/mL
same,Solubility (mg/mL),"[7]; ambient temperature, t-BuOAc, re-precipitated after first aliquot",1* mg/mL
same,AUC∞,"[8]; dose 5.34 mg/kg (Group 1), 7.4 mg/kg (Group 2)",17271 ng·h/mL
same,MRTlast,[8]; [11],39.8 h
same,t1/2,[8]; [11],49.6 h
same,tmax,[8]; [11],3.5 h
same,AUClast/D,[8],2001 kg·ng·h/mL/mg
same,AUC∞/D,[8],2351 kg·ng·h/mL/mg
O=C(O)/C=C/C(=O)O [Fumaric acid],solubility in isopropanol,[3]; 25° C.,relatively low solubility
same,solubility at 15 min,"[3]; IPA, 25° C.",34.3 mg/mL
CCCN1CC(Oc2ccc([C@@H]3c4[nH]c5ccccc5c4C[C@@H](C)N3CC(C)(C)F)cc2)C1 [Compound 1 Form A Acetonitrile Solvate],hygroscopicity by DVS,[2]; DVS,slightly hygroscopic
same,water uptake (DVS),"[2]; DVS, FIG. 4",1.9%
same,Form Change after DVS?,[2],same crystalline pattern after DVS
same,form after heating (XRPD),[9]; heating to 70° C. and 80° C.,became amorphous
CCCN1CC(Oc2ccc([C@@H]3c4[nH]c5ccccc5c4C[C@@H](C)N3CC(C)(C)F)cc2)C1 [Compound 1 Form B],form after heating (XRPD),[9]; heating to 100° C.,became amorphous
